Results: ChEMBL document CHEMBL3132777, “Novel proteinprotein interaction inhibitor of Nrf2Keap1 discovered by structure-based virtual screening” (Medchemcomm, 2014)
Activity calls are given as the source filed them. No cut-off for these calls is given here.

Experiments:
HepG2 [1] = experiment: Induction of Nrf2 transcription activity in human HepG2-ARE-C8 cells assessed as ARE gene expression after 12 to 24 hrs by cell-based luciferase reporter assay; type: functional
HepG2 [2] = experiment: Induction of Nrf2 transcription activity in human HepG2-ARE-C8 cells assessed as increase in ARE gene expression at 200 uM by cell-based luciferase reporter assay relative to untreated control; type: functional
HepG2 [3] = experiment: Cytotoxicity against human HepG2-ARE-C8 cells at 200 uM; type: cell-based; conditions: hepg2, 200 µM
[4] = target: Kelch-like ECH-associated protein 1 (Homo sapiens, UniProt Q14145); experiment: Inhibition of FITC-9mer Nrf2 peptide amide/Keap1 Kelch domain (unknown origin) interaction after 30 mins by fluorescence polarization assay
HepG2 [5] = experiment: Induction of Nrf2 transcription activity in human HepG2-ARE-C8 cells assessed as ARE gene expression at 20 to 100 uM after 12 hrs by cell-based luciferase reporter assay; type: functional
HepG2 [6] = experiment: Induction of Nrf2 transcription activity in human HepG2-ARE-C8 cells assessed as ARE gene expression at 20 to 100 uM after 24 hrs by cell-based luciferase reporter assay; type: functional

Sequence of Kelch-like ECH-associated protein 1 (Q14145 whole entry, the tested form may be a part): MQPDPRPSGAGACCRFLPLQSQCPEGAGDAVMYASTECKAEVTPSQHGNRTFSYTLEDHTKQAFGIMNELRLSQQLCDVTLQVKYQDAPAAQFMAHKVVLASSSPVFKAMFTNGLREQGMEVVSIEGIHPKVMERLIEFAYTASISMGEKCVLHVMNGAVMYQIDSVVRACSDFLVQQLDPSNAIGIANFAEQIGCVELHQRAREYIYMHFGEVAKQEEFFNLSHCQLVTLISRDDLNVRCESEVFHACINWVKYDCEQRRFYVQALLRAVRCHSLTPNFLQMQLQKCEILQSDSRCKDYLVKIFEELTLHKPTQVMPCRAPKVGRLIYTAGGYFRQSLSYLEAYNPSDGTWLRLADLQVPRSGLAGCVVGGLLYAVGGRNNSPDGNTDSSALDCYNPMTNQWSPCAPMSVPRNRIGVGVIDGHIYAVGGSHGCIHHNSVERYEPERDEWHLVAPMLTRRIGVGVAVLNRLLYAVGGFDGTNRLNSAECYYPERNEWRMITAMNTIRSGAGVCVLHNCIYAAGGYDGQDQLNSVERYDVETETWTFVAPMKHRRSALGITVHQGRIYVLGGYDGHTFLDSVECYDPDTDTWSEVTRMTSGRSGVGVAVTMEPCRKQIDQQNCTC

Row | Structure (SMILES) | Activity (HepG2 [1]) | fold change (FC) (HepG2 [2]) | Activity (HepG2 [3]) | EC50 [4] [µM] | Activity (HepG2 [5]) | Activity (HepG2 [6])
1 | O=C(N/N=C/c1ccc(-c2ccc(C(=O)O)cc2)o1)N/N=C/c1ccc(-c2ccc(C(=O)O)cc2)o1 | Dose-dependent effect | 10 | Non-toxic | 9.8 | – | –
2 | CC(C)(C)c1cc(O)ccc1O | – | – | – | – | Active | inactive
